Measured values published in patent US20180078656A1, “CRYPTOPHYCIN-BASED ANTIBODY-DRUG CONJUGATES WITH NOVEL SELF-IMMOLATIVE LINKERS” (priority 2015, published 2018).
pIC50: −log10 of the molar value. Counter-ions that a name gives are not always drawn. Like-named read-outs stand apart in the source and are kept apart here.

Tests used:
MCF7 cells [1] = experiment: Cell viability assay (CellTiter-Glo), MCF7, 96 h; assay type: cell-based, human; conditions: read-out: MCF7 CC50
Protocol: (§1) Tumor cell lines (breast carcinoma cell lines SKBR-3 and MCF7 and colon carcinoma cell line HCT116) were obtained from American Type Culture Collection and were grown according to standard protocols. […] The effects of the cryptophycin-55-glycinate ADC conjugate on tumor cell viability were assessed using the CellTiter-Glo® Luminescent Cell Viability Assay (Promega), according to the manufacturer protocol. […] Cells were plated in black-walled 96-well plates (5000 cells per well for SKBR-3 and MCF7; 2000 cells per well for HCT116) and allowed to adhere overnight at 37° C. in a humidified atmosphere of 5% CO2. […] Five to eight triplicate datapoints were recorded for each experimental condition. At the end of the incubation luminescence was measured using a Perkin Elmer Wallac 1450 MicroBeta TriLux detector. Compound cytotoxicity was evaluated in comparison to cells treated with PBS (antibodies) or 0.1% DMSO (compounds). CC50 values were calculated by fitting viability data with a four-parameter logistic equation using a Kaleidagraph software.

SK-BR3 cells = experiment: Cell viability assay (CellTiter-Glo), SK-BR3; assay type: cell-based; conditions: read-out: SK-BR3 CC50
Protocol: as §1

H69AR cells = experiment: Cell viability assay (CellTiter-Glo), drug-resistant H69AR; assay type: cell-based; conditions: for pIC50: 120 h incubation
Protocol: (§2) H69 cells and the drug-resistant counterpart H69AR were obtained from the American Type Culture Collection and were grown according to standard protocols. The effects of cryptophycin and cryptophycin conjugates on the viability of wild type and drug resistant tumor cell lines were assessed using the CellTiter-Glo® Luminescent Cell Viability Assay (Promega), according to the manufacturer protocol. Cells were plated in black-walled 96-well plates (5000 cells per well) and allowed to adhere overnight at 37° C. in a humidified atmosphere of 5% CO2. Medium was then removed and replaced by fresh culture medium containing increasing concentrations of cryptophycin analogs or doxorubicin as a control. Cells were incubated with compounds for 120 h at 37° C. in 5% CO2. Eight triplicate 1:3 serial dilution datapoints were recorded for each experimental condition (from […] to 10 nM for CRY55-Gly, CRY55-Gly-LINKER73 and CRY55-Gly-LINKER76, from 1.2 nM to 2700 nM for doxorubicin). At the end of the incubation, luminescence was measured using a Perkin Elmer Wallac 1450 MicroBeta TriLux detector. Compound cytotoxicity was evaluated in comparison to cells treated with 0.1% DMSO.

H69 cells = experiment: Cell viability assay (CellTiter-Glo), H69 wild type; assay type: cell-based; conditions: wild type H69, 120 h incubation
Protocol: as §2

HCT116 cells = experiment: Cell viability assay (CellTiter-Glo), HCT116; assay type: cell-based; conditions: read-out: HCT116 CC50
Protocol: as §1

AR42J cells = experiment: Cell viability assay (CellTiter-Glo), AR42J, 120 h; assay type: cell-based, rat; conditions: 120 h incubation; for pIC50: SSTR2-high AR42J
Protocol: (§3) Tumor cell lines (the rat pancreatic tumor cell line AR42J and the human breast carcinoma cell line MCF7) were obtained from the American Type Culture Collection and were grown according to standard protocols.
(§4) The effects of the cryptophycin-55-glycinate-octreotide conjugate of Example 5 on the viability of the tumor cell lines AR42J (STTR2^high) and MCF7 (SSTR2^low) were assessed using the CellTiter-Glo® Luminescent Cell Viability Assay (Promega), according to the manufacturer protocol. Cells were plated in black-walled 96-well plates (5000 cells per well) and allowed to adhere overnight at 37° C. in a humidified atmosphere of 5% CO2. Medium was then removed and replaced by fresh culture medium containing increasing concentrations of cryptophycin-55-glycinate-octreotide conjugate (CRY55-Gly-Oct), unconjugated octreotide, or free cryptophycin-55-glycinate (CRY55-Gly), and the cells were incubated for 120 h at 37° C. in 5% CO2. Nine triplicate 1:3 serial dilution datapoints were recorded for each experimental condition (from 0.0015 nM to 10 nM for CRY55-Gly and CRY55-Gly-Oct, from 0.0015 uM to 10 uM for the unconjugated octreotide). At the end of the incubation luminescence was measured using a Perkin Elmer Wallac 1450 MicroBeta TriLux detector. Compound cytotoxicity was evaluated in comparison to cells treated with 0.1% DMSO. IC50 values were calculated by fitting viability data with a four-parameter logistic equation using a Kaleidagraph software. Residual cell viability plots obtained upon treatment of the AR42J and MCF7 cells with the different compounds are shown in FIG. 3 and FIG. 4, respectively.

MCF7 cells [2] = experiment: Cell viability assay (CellTiter-Glo), MCF7, 120 h; assay type: cell-based, human; conditions: for pIC50: read-out: IC50, MCF7
Protocol: as §3, §4

COc1ccc(C[C@H]2NC(=O)/C=C/C[C@@H]([C@H](C)[C@@H](O)[C@@H](Cl)c3ccccc3)OC(=O)[C@H](CC(C)C)OC(=O)C(C)(C)CNC2=O)cc1Cl [Cry-55, Cryptophycin-55]
CC50 (MCF7 cells [1]; Homo sapiens, MCF7, 96 h): 0.18 nM
CC50 (SK-BR3 cells; Homo sapiens, SK-BR-3, 96 h): 0.076 nM
pIC50 (H69AR cells; Homo sapiens): 9.64
pIC50 (H69 cells; Homo sapiens, NCI-H69): 10.00
CC50 (HCT116 cells; Homo sapiens, HCT-116, 96 h): 0.1 nM

COc1ccc(C[C@H]2NC(=O)/C=C/C[C@@H]([C@H](C)[C@@H](OC(=O)CN)[C@@H](Cl)c3ccccc3)OC(=O)[C@H](CC(C)C)OC(=O)C(C)(C)CNC2=O)cc1Cl [Cry-55-Gly, Cryptophycin-55-glycinate trifluoroacetate]
CC50 (MCF7 cells [1]; Homo sapiens, MCF7, 96 h): 0.25 nM
pIC50 (AR42J cells; Rattus norvegicus, AR-42J): 9.10
pIC50 (MCF7 cells [2]; Homo sapiens, MCF7, 120 h): 9.70
CC50 (SK-BR3 cells; Homo sapiens, SK-BR-3, 96 h): 0.09 nM
pIC50 (H69AR cells; Homo sapiens): 9.82
pIC50 (H69 cells; Homo sapiens, NCI-H69): 10.05
CC50 (HCT116 cells; Homo sapiens, HCT-116, 96 h): 0.19 nM

COc1ccc(C[C@H]2NC(=O)/C=C/C[C@@H]([C@H](C)[C@@H](OC(=O)CNC(=O)[C@@H]3CCCN3C(=O)CNC(=O)[C@H](CCCNC(N)=O)NC(=O)[C@@H](NC(=O)CCOCCOCCOCCOCCn3cc(CCC(=O)N[C@H](Cc4ccccc4)C(=O)N[C@H]4CSSCC(C(=O)N[C@H](CO)[C@@H](C)O)NC(=O)C([C@@H](C)O)NC(=O)[C@H](CCCCN)NC(=O)[C@@H](Cc5c[nH]c6ccccc56)NC(=O)[C@H](Cc5ccccc5)NC4=O)nn3)C(C)C)[C@@H](Cl)c3ccccc3)OC(=O)[C@H](CC(C)C)OC(=O)C(C)(C)CNC2=O)cc1Cl (some centres unmarked) [Oct-Cry55-Gly conjugate]
pIC50 (AR42J cells): 9.05
fold difference of IC50 on MCF7, conjugate versus cryptophycin-55-glycinate (MCF7 cells [2]; MCF7, 120 h incubation): 90 fold
pIC50 (MCF7 cells [2]; SSTR2-low MCF7, 120 h incubation): 7.57

C[C@@H](O)[C@@H]1NC(=O)[C@H](CCCCN)NC(=O)[C@@H](Cc2c[nH]c3ccccc23)NC(=O)[C@H](Cc2ccccc2)NC(=O)[C@@H](NC(=O)[C@H](N)Cc2ccccc2)CSSC[C@@H](C(=O)N[C@H](CO)[C@@H](C)O)NC1=O [Octreotide]
inhibition of AR42J viability (AR42J cells; up to 10 uM): 30% inh. up to 10 uM
IC50, MCF7 (in words) (MCF7 cells [2]; SSTR2-low MCF7, 120 h, tested […] to 10 uM): completely ineffective

COc1cccc2c1C(=O)c1c(O)c3c(c(O)c1C2=O)C[C@@](O)(C(=O)CO)C[C@@H]3O[C@H]1C[C@H](N)[C@H](O)[C@H](C)O1 [doxorubicin]
effect on H69AR cell viability (in words) (H69AR cells; 120 h, 1.2 nM to 2700 nM): only minor effects

Azide-TEG-Val-Cit-Gly-Pro-Gly-cryptophycin-55 [Example 5]
pIC50 (H69AR cells): 8.44
pIC50 (H69 cells): 8.77

Maleimide-PEG-Val-Cit-Pro-Gly-Cryptophycin-55-glycinate [Cry-55-Linker]
CC50 (MCF7 cells [1]; Her2-low MCF7, 96 h incubation): 6.1 nM
CC50 (SK-BR3 cells; HER2-positive SK-BR3, 96 h incubation): 2.6 nM
CC50 (HCT116 cells; Her2-low HCT116, 96 h incubation): 4.4 nM
